ChEMBL document CHEMBL5126564, “Design, synthesis and biological evaluation of chromone derivatives as novel protein kinase CK2 inhibitors” (Bioorg Med Chem Lett, 2022)
Active and inactive are the calls of the source. No cut-off for these calls is given here.

What was measured:
[1] = biological target: T1, Casein kinase 2 (Homo sapiens, UniProt P67870+P68400+P19784+Q8NEV1); test: Inhibition of CK2 in human HL-60 cells assessed as decrease in p-alpha-catenin level at 0.1 to 1 uM by Western blot analysis; type: cell-based; conditions: dose 0.1-1 µM
[2] = system: HL-60; test: Induction of apoptosis in human HL-60 cells measured after 48 hrs by flow cytometry; type: functional, cell-based; conditions: DDE = dose-dependent effect
[3] = biological target: T1, Casein kinase 2; test: Inhibition of CK2 in human HL-60 cells assessed as increase in cleaved PARP level at 0.1 to 1 uM by Western blot analysis; type: cell-based; conditions: dose 0.1-1 µM
[4] = biological target: T1, Casein kinase 2; test: Inhibition of CK2 in human HL-60 cells assessed as decrease in p-Akt (S129) level at 0.1 to 1 uM by Western blot analysis; type: cell-based; conditions: dose 0.1-1 µM
[5] = biological target: T1, Casein kinase 2; test: Inhibition of CK2 (unknown origin); type: protein assay
[6] = system: A549; test: Antiproliferative activity against human A549 cells assessed as cell viability after 48 hrs by CCK-8 assay; type: functional, cell-based; conditions: A549, 48 h
[7] = biological target: T1, Casein kinase 2; test: Inhibition of CK2 in human HL-60 cells assessed as decrease in p-STAT3 level at 0.1 to 1 uM by Western blot analysis; type: cell-based; conditions: dose 0.1-1 µM
[8] = system: HL-60; test: Antiproliferative activity against human HL-60 cells assessed as cell viability after 48 hrs by CCK-8 assay; type: functional, cell-based; conditions: HL-60, 48 h
[9] = system: HL-60; test: Induction of apoptosis in human HL-60 cells assessed as early apoptotic cells at 1 uM measured after 48 hrs by flow cytometry relative to control; type: functional
[10] = system: HepG2; test: Antiproliferative activity against human HepG2 cells assessed as cell viability after 48 hrs by CCK-8 assay; type: functional, cell-based; conditions: HepG2, 48 h
[11] = biological target: T1, Casein kinase 2; test: Binding affinity to CK2 (unknown origin) by cellular thermal shift assay; type: protein assay
[12] = biological target: T1, Casein kinase 2; test: Inhibition of CK2 in human HL-60 cells assessed as decrease in p-p21 level at 0.1 to 1 uM by Western blot analysis; type: cell-based; conditions: dose 0.1-1 µM
[13] = biological target: T1, Casein kinase 2; test: Inhibition of CK2 in human HL-60 cells assessed as decrease in survivin level at 0.1 to 1 uM by Western blot analysis; type: cell-based; conditions: dose 0.1-1 µM
[14] = system: HL-60; test: Induction of cell cycle arrest in human HL-60 cells assessed as increase number of cells at G0/G1 phase at 0.1 to 1 uM measured after 12 to 48 hrs by flow cytometry; type: functional, cell-based; conditions: dose 0.1-1 µM, time 12-48 hrs, DDE = dose-dependent effect
[15] = Cytotoxicity against human MSC assessed as cell viability after 48 hrs by CCK-8 assay; type: toxicity, cell-based; conditions: mesenchymal stem cells (MSC)
[16] = system: SK-OV-3; test: Antiproliferative activity against human SK-OV-3 cells assessed as cell viability after 48 hrs by CCK-8 assay; type: functional, cell-based; conditions: SK-OV-3, 48 h

| SMILES | IC50 [5] | further results |
| --- | --- | --- |
| COc1ccc2sc(NC(=O)c3cc(=O)c4ccccc4o3)nc2c1 | 0.08 µM | inhibition [1]: Active; Activity [2]: Dde; inhibition [3]: Active; inhibition [4]: Active; IC50 [6]: 0.38 µM; inhibition [7]: Active; IC50 [8]: 0.25 µM; Activity [9]: 80.7%; IC50 [10]: 0.66 µM; Activity [11]: Active; inhibition [12]: Active; inhibition [13]: Active; Activity [14]: Dde; IC50 at 48 h [15]: 6.25 µM; IC50 [16]: 0.39 µM |
| O=C(Nc1nccs1)c1cc(=O)c2ccccc2o1 | 5.21 µM | – |
| O=C(Nc1ncc(Br)s1)c1cc(=O)c2ccccc2o1 | 5.44 µM | – |
| O=C(Nc1nc2ccccc2s1)c1cc(=O)c2ccccc2o1 | 0.31 µM | – |
| N#Cc1cccc(-c2csc(NC(=O)c3cc(=O)c4ccccc4o3)n2)c1 | 5.09 µM | – |
| O=C(Nc1ncco1)c1cc(=O)c2ccccc2o1 | 4.88 µM | – |
| O=C(Nc1nc(-c2ccc(O)cc2)cs1)c1cc(=O)c2ccccc2o1 | 0.74 µM | – |
| CC(C)c1csc(NC(=O)c2cc(=O)c3ccccc3o2)n1 | 5.34 µM | – |
| Cc1cccc(-c2csc(NC(=O)c3cc(=O)c4ccccc4o3)n2)c1 | 4.12 µM | – |
| O=C(Nc1nnco1)c1cc(=O)c2ccccc2o1 | 6.88 µM | – |
| O=C(Nc1nc(-c2ccc(C(F)(F)F)cc2)cs1)c1cc(=O)c2ccccc2o1 | 0.34 µM | – |
| Cc1nnc(NC(=O)c2cc(=O)c3ccccc3o2)o1 | 5.2 µM | – |
| O=C(Nc1nc2ccc(F)cc2s1)c1cc(=O)c2ccccc2o1 | 0.24 µM | – |
| O=C(Nc1nc2ccc(OC(F)(F)F)cc2s1)c1cc(=O)c2ccccc2o1 | 0.16 µM | – |
| Cc1nc(NC(=O)c2cc(=O)c3ccccc3o2)sc1C | 6.11 µM | – |
| Cc1ccc2nc(NC(=O)c3cc(=O)c4ccccc4o3)sc2c1 | 0.37 µM | – |
| O=C(Nc1nc(-c2ccc(OC(F)(F)F)cc2)cs1)c1cc(=O)c2ccccc2o1 | 0.18 µM | IC50 [6]: 0.67 µM; IC50 [8]: 0.59 µM; IC50 [10]: 1.04 µM; IC50 at 48 h [15]: 17.7 µM; IC50 [16]: 0.49 µM |

| SMILES | IC50 [5] | further results |
| --- | --- | --- |
| COc1ccc2nc(NC(=O)c3cc(=O)c4ccccc4o3)sc2c1 | 0.29 µM | – |
| O=C(Nc1nc(-c2ccc(F)cc2)cs1)c1cc(=O)c2ccccc2o1 | 0.15 µM | IC50 [6]: 0.52 µM; IC50 [8]: 0.42 µM; IC50 [10]: 0.95 µM; IC50 at 48 h [15]: 7.56 µM; IC50 [16]: 0.44 µM |
| CC(C)Cc1csc(NC(=O)c2cc(=O)c3ccccc3o2)n1 | 4.35 µM | – |
| O=Cc1cnc(NC(=O)c2cc(=O)c3ccccc3o2)s1 | 4.98 µM | – |
| O=C(Nc1nc2cc(F)ccc2s1)c1cc(=O)c2ccccc2o1 | 0.11 µM | IC50 [6]: 0.44 µM; IC50 [8]: 0.31 µM; IC50 [10]: 0.85 µM; IC50 at 48 h [15]: 4.34 µM; IC50 [16]: 0.42 µM |
| COc1ccc(-c2csc(NC(=O)c3cc(=O)c4ccccc4o3)n2)cc1 | 0.59 µM | – |
| O=C(Nc1nc2ccc(Br)cc2s1)c1cc(=O)c2ccccc2o1 | 0.29 µM | – |
| O=C(Nc1nc2cc(Br)ccc2s1)c1cc(=O)c2ccccc2o1 | 0.25 µM | – |
| O=C(Nc1nc(-c2ccccc2)cs1)c1cc(=O)c2ccccc2o1 | 0.61 µM | – |
| O=C(O)c1cc(=O)c2ccccc2o1 [CHROMOCARB] | 5.98 µM | – |
| Cc1csc(NC(=O)c2cc(=O)c3ccccc3o2)n1 | 6.42 µM | – |
| CNC(=O)c1cc(Oc2ccc(NC(=O)Nc3ccc(Cl)c(C(F)(F)F)c3)cc2)ccn1 [SORAFENIB] | – | Activity [9]: 73.2% |
| O=C(Nc1nc2ccc(C(F)(F)F)cc2s1)c1cc(=O)c2ccccc2o1 | 0.2 µM | – |
| O=C(Nc1nc(-c2cccc(C(F)(F)F)c2)cs1)c1cc(=O)c2ccccc2o1 | 5.55 µM | – |
| Cc1cc2nc(NC(=O)c3cc(=O)c4ccccc4o3)sc2cc1C | 0.36 µM | – |
| Cc1cnc(NC(=O)c2cc(=O)c3ccccc3o2)s1 | 7.11 µM | – |
| Cc1ccc(-c2csc(NC(=O)c3cc(=O)c4ccccc4o3)n2)cc1 | 0.23 µM | – |
